Values belong to the molecule of their own block, whether it stands above or below them.
Columns and labels:
Histone deacetylase 4 = Histone deacetylase 4 (Homo sapiens, UniProt P56524); test: Inhibition of HDAC4 (unknown origin)
Histone deacetylase 5 = Histone deacetylase 5 (Homo sapiens, UniProt Q9UQL6); test: Inhibition of HDAC5 (unknown origin)
[1] = target: T1, Protein deacetylase HDAC6 (Homo sapiens, UniProt Q9UBN7); test: Inhibition of HDAC6 (unknown origin)
T1 sequence (Q9UBN7 whole entry): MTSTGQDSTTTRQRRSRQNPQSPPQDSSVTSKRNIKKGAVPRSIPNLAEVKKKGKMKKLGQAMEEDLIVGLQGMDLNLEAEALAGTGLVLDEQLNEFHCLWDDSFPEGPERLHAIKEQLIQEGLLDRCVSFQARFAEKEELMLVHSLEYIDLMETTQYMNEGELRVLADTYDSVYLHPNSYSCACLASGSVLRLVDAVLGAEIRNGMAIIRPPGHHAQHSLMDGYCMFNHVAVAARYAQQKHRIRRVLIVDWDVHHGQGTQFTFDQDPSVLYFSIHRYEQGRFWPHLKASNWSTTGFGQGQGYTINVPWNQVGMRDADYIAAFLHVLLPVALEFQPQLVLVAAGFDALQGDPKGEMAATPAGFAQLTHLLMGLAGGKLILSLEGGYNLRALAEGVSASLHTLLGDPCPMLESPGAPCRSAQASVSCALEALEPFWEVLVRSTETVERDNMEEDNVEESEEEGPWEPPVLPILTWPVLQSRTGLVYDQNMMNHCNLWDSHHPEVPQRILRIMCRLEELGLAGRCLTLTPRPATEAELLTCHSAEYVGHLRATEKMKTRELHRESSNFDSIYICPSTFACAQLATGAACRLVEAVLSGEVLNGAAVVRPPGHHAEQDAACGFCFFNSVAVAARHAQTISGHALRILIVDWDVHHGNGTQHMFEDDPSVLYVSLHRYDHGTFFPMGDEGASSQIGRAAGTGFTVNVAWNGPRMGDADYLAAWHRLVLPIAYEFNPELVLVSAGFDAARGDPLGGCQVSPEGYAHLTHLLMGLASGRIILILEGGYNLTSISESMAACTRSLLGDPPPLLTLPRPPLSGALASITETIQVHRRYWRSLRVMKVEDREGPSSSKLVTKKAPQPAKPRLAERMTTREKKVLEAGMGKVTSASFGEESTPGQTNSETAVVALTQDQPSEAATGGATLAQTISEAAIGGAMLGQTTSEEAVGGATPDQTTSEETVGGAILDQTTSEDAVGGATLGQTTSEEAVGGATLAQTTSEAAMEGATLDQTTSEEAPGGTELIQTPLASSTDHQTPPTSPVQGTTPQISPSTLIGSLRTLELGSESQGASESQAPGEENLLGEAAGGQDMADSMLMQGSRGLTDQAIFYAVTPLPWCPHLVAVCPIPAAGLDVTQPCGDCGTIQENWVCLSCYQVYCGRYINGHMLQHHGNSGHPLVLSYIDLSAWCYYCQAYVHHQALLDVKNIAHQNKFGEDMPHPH

Histone deacetylase 1 [2] = target: T2, Histone deacetylase 1 (Homo sapiens, UniProt Q13547); test: Inhibition of HDAC1 (unknown origin)
T2 sequence (Q13547 whole entry): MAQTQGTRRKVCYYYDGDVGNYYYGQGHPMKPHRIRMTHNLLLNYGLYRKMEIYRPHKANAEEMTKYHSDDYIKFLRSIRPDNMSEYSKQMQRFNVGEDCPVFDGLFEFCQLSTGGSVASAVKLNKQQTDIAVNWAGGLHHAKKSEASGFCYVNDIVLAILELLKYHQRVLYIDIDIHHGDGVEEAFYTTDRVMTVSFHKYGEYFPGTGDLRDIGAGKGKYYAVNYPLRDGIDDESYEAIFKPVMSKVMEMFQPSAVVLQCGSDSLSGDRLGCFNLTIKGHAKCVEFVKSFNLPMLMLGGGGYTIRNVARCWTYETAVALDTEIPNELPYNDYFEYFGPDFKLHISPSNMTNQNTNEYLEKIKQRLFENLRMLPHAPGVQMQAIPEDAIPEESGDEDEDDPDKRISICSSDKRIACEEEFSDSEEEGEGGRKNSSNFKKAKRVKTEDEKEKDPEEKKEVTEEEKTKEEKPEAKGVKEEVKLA

Histone deacetylase 2 [3] = target: T3, Histone deacetylase 2 (Homo sapiens, UniProt Q92769); test: Inhibition of HDAC2 (unknown origin)
T3 sequence (Q92769 whole entry): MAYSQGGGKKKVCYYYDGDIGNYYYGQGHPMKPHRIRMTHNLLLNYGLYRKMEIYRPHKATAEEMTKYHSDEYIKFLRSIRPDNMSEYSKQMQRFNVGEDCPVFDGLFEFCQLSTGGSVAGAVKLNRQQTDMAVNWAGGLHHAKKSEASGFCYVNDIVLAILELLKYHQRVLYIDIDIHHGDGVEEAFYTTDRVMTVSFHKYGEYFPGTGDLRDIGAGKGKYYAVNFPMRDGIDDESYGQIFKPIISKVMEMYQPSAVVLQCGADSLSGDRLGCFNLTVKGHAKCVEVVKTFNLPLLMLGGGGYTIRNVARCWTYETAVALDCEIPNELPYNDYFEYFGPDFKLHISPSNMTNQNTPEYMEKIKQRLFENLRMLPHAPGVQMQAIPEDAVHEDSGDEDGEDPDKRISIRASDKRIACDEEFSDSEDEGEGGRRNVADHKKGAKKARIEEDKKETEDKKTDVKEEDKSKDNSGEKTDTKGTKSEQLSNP

Histone deacetylase 3 [4] = target: T4, Histone deacetylase 3 (Homo sapiens, UniProt O15379); test: Inhibition of HDAC3 (unknown origin) using carboxyfluorescein (FAM)-labeled acetylated peptide as substrate after 17 hrs by fluorescence-based electrophoretic assay
T4 sequence (O15379 whole entry): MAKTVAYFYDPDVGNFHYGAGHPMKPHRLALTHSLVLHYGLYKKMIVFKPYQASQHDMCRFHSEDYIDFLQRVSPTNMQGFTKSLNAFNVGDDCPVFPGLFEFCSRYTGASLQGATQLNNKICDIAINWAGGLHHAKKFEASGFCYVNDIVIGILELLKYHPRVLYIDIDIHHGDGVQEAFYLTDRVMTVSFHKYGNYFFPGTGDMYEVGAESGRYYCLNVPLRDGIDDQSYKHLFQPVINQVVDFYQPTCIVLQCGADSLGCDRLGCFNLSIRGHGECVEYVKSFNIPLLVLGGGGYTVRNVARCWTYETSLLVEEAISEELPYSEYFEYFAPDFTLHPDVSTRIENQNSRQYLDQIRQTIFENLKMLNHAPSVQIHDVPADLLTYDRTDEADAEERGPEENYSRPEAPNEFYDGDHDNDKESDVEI

Histone deacetylase 2 [5] = target: T3, Histone deacetylase 2; test: Inhibition of HDAC2 (unknown origin) using carboxyfluorescein (FAM)-labeled acetylated peptide as substrate after 17 hrs by fluorescence-based electrophoretic assay
Histone deacetylase 1 [6] = target: T2, Histone deacetylase 1; test: Inhibition of HDAC1 (unknown origin) using carboxyfluorescein (FAM)-labeled acetylated peptide as substrate after 17 hrs by fluorescence-based electrophoretic assay
Histone deacetylase 8 = target: T5, Histone deacetylase 8 (Homo sapiens, UniProt Q9BY41); test: Inhibition of HDAC8 (unknown origin); conditions: read-out: Kd(app)
T5 sequence (Q9BY41 whole entry): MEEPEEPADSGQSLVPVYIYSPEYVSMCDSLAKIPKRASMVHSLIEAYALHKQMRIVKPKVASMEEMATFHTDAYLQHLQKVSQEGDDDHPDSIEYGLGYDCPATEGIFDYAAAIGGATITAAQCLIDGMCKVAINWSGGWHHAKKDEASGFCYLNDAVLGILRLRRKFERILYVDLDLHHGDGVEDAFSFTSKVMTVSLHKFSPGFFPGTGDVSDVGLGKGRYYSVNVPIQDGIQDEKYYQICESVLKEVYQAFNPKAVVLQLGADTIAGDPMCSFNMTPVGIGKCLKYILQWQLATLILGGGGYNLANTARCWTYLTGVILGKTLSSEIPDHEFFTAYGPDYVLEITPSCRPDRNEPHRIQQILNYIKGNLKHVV

Histone deacetylase 3 [7] = target: T4, Histone deacetylase 3; test: Inhibition of HDAC3 (unknown origin); conditions: read-out: Kd(app)
[8] = target: T6, Polyamine deacetylase HDAC10 (Homo sapiens, UniProt Q969S8); test: Inhibition of HDAC10 (unknown origin)
T6 sequence (Q969S8 whole entry): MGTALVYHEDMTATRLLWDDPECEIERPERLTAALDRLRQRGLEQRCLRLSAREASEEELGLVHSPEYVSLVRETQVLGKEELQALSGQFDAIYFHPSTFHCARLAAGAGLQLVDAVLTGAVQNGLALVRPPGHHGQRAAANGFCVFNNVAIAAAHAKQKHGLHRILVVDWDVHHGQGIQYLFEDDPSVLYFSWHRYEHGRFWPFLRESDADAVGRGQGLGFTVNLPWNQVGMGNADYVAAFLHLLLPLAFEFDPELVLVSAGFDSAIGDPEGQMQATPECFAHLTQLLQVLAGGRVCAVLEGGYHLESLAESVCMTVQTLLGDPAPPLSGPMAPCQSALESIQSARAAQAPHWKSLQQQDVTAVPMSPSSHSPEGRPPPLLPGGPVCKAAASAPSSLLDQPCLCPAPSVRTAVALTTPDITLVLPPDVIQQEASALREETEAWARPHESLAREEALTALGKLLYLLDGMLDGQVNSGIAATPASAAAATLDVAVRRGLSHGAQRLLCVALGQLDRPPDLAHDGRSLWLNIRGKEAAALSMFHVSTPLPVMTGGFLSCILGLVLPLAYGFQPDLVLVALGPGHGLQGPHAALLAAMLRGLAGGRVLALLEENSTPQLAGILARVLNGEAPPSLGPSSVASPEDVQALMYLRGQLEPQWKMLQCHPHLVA

Chain of Histone deacetylase 4 (P56524 whole entry): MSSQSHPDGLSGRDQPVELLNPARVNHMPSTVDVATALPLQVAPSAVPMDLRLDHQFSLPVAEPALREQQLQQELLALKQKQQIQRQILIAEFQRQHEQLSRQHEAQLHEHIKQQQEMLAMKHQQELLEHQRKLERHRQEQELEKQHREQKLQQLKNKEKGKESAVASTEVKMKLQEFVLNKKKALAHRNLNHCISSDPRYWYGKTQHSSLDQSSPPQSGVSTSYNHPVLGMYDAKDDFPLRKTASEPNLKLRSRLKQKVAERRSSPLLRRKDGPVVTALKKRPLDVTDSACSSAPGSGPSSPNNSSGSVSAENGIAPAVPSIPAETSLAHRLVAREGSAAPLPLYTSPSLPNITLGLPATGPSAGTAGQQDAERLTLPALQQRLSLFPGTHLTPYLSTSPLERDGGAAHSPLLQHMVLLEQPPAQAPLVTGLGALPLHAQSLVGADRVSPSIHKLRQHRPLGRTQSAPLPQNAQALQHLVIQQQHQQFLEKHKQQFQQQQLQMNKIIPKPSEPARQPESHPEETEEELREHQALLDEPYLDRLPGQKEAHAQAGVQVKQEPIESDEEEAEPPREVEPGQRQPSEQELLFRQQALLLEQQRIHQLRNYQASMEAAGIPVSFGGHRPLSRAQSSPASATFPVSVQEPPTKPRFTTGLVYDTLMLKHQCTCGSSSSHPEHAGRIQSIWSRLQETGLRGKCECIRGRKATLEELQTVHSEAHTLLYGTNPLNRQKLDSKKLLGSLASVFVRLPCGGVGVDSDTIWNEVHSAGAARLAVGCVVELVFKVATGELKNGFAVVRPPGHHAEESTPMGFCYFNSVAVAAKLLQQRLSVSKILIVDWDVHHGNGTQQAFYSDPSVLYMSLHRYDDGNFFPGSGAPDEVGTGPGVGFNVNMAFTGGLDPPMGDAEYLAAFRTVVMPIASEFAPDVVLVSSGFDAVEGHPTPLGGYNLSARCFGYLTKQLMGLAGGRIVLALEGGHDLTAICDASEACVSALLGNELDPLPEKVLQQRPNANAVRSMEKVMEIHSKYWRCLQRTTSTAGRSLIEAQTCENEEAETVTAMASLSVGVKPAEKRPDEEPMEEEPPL
Chain of Histone deacetylase 5 (Q9UQL6 whole entry): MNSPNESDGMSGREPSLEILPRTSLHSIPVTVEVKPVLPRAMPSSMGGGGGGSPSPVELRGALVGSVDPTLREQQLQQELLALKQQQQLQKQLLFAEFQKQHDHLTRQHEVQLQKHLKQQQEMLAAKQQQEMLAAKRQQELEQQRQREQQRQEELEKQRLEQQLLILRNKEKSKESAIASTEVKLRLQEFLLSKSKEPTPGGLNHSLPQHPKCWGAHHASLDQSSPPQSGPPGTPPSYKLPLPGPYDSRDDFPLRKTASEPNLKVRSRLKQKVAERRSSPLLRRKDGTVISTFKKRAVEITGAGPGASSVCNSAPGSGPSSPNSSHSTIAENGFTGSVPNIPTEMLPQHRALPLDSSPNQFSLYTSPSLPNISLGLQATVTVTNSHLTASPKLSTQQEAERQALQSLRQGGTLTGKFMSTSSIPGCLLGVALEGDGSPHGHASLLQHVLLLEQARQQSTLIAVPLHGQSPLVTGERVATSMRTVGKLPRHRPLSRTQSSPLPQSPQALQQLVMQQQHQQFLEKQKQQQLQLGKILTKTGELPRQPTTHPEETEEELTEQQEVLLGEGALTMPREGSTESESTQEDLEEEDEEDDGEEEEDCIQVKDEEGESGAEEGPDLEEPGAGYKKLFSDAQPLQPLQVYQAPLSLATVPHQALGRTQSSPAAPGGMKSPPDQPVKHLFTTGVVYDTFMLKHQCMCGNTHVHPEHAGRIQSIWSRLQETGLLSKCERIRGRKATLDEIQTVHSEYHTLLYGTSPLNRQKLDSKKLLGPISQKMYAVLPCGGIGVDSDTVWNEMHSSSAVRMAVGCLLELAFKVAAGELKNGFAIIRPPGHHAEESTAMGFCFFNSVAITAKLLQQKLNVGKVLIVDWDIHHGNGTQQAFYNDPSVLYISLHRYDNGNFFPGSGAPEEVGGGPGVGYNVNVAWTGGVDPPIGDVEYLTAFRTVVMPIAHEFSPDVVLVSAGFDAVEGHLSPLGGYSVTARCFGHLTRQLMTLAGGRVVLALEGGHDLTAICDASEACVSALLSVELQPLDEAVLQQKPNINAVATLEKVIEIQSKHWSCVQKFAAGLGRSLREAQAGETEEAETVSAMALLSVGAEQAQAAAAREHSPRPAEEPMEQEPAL

SMILES: Cc1onc(-c2ccccc2)c1C(=O)NCCCCCNC(=O)CS
IC50 (Histone deacetylase 4): 10 µM
IC50 (Histone deacetylase 5): 15 µM
IC50 [1]: 0.26 µM
IC50 (Histone deacetylase 1 [2]): 5.7 µM
IC50 (Histone deacetylase 2 [3]): 28 µM

SMILES: Cc1onc(-c2ccccc2)c1C(=O)NCCCCCNC(=O)[C@@H](C)S
IC50 (Histone deacetylase 4): > 30 µM
IC50 (Histone deacetylase 5): > 30 µM
IC50 [1]: 0.28 µM
IC50 (Histone deacetylase 1 [2]): > 30 µM
IC50 (Histone deacetylase 2 [3]): > 30 µM

SMILES: CCCCOc1ccc(CC(=O)NO)cc1 [BUFEXAMAC]
Kd (Histone deacetylase 8): 235 µM
Kd ([1]; read-out: Kd(app)): 10.7 µM
Kd (Histone deacetylase 3 [7]): 341 µM
Kd (Histone deacetylase 1 [2]; read-out: Kd(app)): > 1000 µM
Kd (Histone deacetylase 2 [3]; read-out: Kd(app)): > 1000 µM
Kd ([8]; read-out: Kd(app)): 12.3 µM

Next, values leading:

IC50 [1]: 4.01 µM
IC50 (Histone deacetylase 1 [2]): 82.6 µM
SMILES: COC(=O)[C@@H](Cc1ccccn1)NC(=O)CCCCCCCC(=O)NO

IC50 [1]: 4.06 µM
IC50 (Histone deacetylase 1 [2]): 67.3 µM
SMILES: COC(=O)[C@H](Cc1ccccn1)NC(=O)CCCCCCCC(=O)NO

IC50 (Histone deacetylase 3 [4]): 0.19 µM
IC50 (Histone deacetylase 2 [5]): 0.093 µM
IC50 (Histone deacetylase 1 [6]): 0.0127 µM
SMILES: CC(C)(C)OC(=O)Nc1ccc(-c2cc(C(=O)NCCCCCCC(=O)NO)no2)cc1

IC50 [8]: > 10 µM
SMILES: O=C(CCCCCCNC(=O)c1cnc(N(c2ccccc2)c2ccccc2)nc1)NO [RICOLINOSTAT]

Source: ChEMBL document CHEMBL2417402, “Development and therapeutic implications of selective histone deacetylase 6 inhibitors” (J Med Chem, 2013)
